Data as given in US9617302B2 (priority 2011, dated 2017).
Values joined by “and” are separate entries in the source; they are usually repeats but may differ in a detail not shown here. Equal entries are not always repeated. “Also recorded” adds a separate entry of the source. No end group written: not given here.

Key:
Tail bleeding time = assay type: in vivo, mice; details: 5 min after injection
Description: Bleeding time was measured by a minor modified method described by Dejana et al (Dejana E, Villa S, de Gaetano G. Bleeding time in rats: a comparison of different experimental conditions. Thrombosis and haemostasis 1982 Aug. 24; 48(1):108-11). […] A sharp cut of 2 mm from tail tip of mouse was made 5 min after injection. The tail was immediately placed into a tube filled with saline, kept at 37° C. for measuring bleeding time.

[1] = system: platelet-rich thrombus formation in irradiated mesenteric venules; experiment: Fluorescein sodium-induced platelet thrombus formation in mesenteric venules; assay type: in vivo, mice
washed platelets = assay type: cell-based, human; details: for IC50: read-out: IC50, inhibition of the collagen-induced aggregation
[2] = Platelet count of whole blood after administration; assay type: in vivo, mice; details: 30 mg/kg, 5 min after administration; control 11.41±0.19
Description: Male ICR mice (25-30 g) were intravenously (IV) injected with PBS or hexapeptide (30 mg/kg), and then blood was collected at 5 min after injection. The platelet number of the whole blood sample was counted by a Sysmex cell counter (Chuo-Ku Kobe, Japan). PRP was prepared immediately by centrifugation at 200 g for 5 min. Platelet counts in PRP were adjusted to 3×10^8/ml and aggregation assay was performed in an aggregometer.

[3] = system: [Ca2+]i elevation in platelets; experiment: Intracellular Ca2+ level in Fura-2-loaded platelets stimulated with collagen; assay type: cell-based; details: Fura-2/AM; various concentrations
Description: The concentration of intracellular free Ca^2+ was determined using a fluorescent probe, Fura-2/AM, according to the method of Pollock and Rink (Pollock W K, Rink T J. Thrombin and ionomycin can raise platelet cytosolic Ca2+ to micromolar levels by discharge of internal Ca2+ stores: studies using fura-2. Biochemical and biophysical research communications 1986 Aug. 29; 139(1):308-14). Fura-2/AM—loaded platelets were prepared as the washed platelets except washing with Ca^2+-free Tyrode solution and allowed platelets to uptake Fura-2/AM (5 μM) for 30 min in the first wash. The intracellular Ca^2+ level of Fura-2-loaded platelets (3×10^8/ml) in the presence of 1 mM of Ca^2+ was measured by the fluorescence change (excitation at 339 nm, emission at 500 nm) with a Hitachi fluorescence spectrophotometer.

GPVI = GPVI (Homo sapiens, UniProt Q9HCN6); assay type: binding
[4] = system: platelet-rich plasma (PRP) prepared from mice; experiment: Ex vivo platelet aggregation study (PRP of treated mice, collagen); assay type: in vivo; details: 10 mg/kg; collagen 3 μg/ml
Description: […] The platelet number of the whole blood sample was counted by a Sysmex cell counter (Chuo-Ku Kobe, Japan). PRP was prepared immediately by centrifugation at 200 g for 5 min. Platelet counts in PRP were adjusted to 3×10^8/ml and aggregation assay was performed in an aggregometer.

Sequence of GPVI (Q9HCN6 21-339): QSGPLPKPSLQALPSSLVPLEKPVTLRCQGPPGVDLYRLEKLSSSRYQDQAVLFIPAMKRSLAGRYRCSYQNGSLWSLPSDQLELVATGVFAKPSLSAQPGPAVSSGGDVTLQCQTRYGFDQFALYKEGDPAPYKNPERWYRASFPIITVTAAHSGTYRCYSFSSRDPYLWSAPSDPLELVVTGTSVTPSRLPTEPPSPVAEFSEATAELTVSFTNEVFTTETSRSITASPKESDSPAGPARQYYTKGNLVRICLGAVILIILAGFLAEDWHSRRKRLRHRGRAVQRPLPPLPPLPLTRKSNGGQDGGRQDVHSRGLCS
Sequence of GPVI (P30273 19-86, further chain): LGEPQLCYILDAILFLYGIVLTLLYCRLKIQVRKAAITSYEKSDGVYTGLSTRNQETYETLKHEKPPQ

CC(=O)Oc1ccccc1C(=O)O [aspirin, reference compound]
Bleeding time (Tail bleeding time; 250 mg/kg IV): 8.20 ± 0.91 min | Occlusion time ([1]; 250 mg/kg, control (PBS) 111.1 ± 5.1 s): 298.7 ± 29.6 s | Occlusion time ([1]; 250 mg/kg, control (PBS) 111.1 ± 5.1 s, listed as Aspirin): 298.7 ± 29.6 s

CCCCS(=O)(=O)N[C@@H](Cc1ccc(OCCCCC2CCNCC2)cc1)C(=O)O [tirofiban]
Bleeding time (Tail bleeding time; 0.4 mg/kg IV): 4.20 ± 1.20 min

C(dK)WM(dN)V [d-form Tro-α6]
IC50, inhibition of the collagen-induced aggregation (washed platelets): (IC50: 6.82 ± 3.34 μg/ml | Inhibition of the collagen-induced aggregation (%) (washed platelets): 89.44 ± 6.49% | IC50 (washed platelets): 8.75 µM

CKAMNV [Tro-α6 W116A]
Inhibition of the collagen-induced aggregation (%) (washed platelets): 12.28 ± 2.40% | Inhibitory activity on collagen-induced platelet aggregation (in words) (washed platelets): decreased dramatically; also recorded: diminished

CKWANV [Tro-α6 M117A]
Inhibition of the collagen-induced aggregation (%) (washed platelets): 52.91 ± 15.90%

CKWMNV [Tro-α6, CKWMNV]
Platelet count [2]: 11.18±0.30 ×10^8/ml

CWNKMV [Tro-α6 scramble]
Inhibitory activity on collagen-induced platelet aggregation (in words) (washed platelets): little effect

GFCKWMNVAC [Tro-α10]
Collagen-evoked increase of [Ca2+]i [3]: inhibited by decapeptide in a concentration-dependent manner | IC50, inhibition of the collagen-induced aggregation (washed platelets): 93.75 ± 6.25 (IC50: 35.17 ± 11.00 | Inhibition of the collagen-induced aggregation (%) (washed platelets): 60% and 93.75 ± 6.25 (IC50: 35.17 ± 11.00% | IC50 (washed platelets): 30.4 µM | Binding of anti-GPVI mAb (326E12) to platelets (GPVI): specifically inhibited | % of inhibition, collagen-induced platelet aggregation ex vivo [4]: 55.87 ± 10.82 (n = 11) % | Occlusion time ([1]; 10 mg/kg, control (PBS) 153.0 ± 13.5 s): 294.5 ± 25.4 s | Occlusion time ([1]; 10 mg/kg, control (PBS) 153.0 ± 13.5 s, listed as Decapeptide): 294.5 ± 25.4 s

RKWVNY [Agg-α6]
Inhibition of the collagen-induced aggregation (%) (washed platelets): 21.67 ± 9.33%
